The structures appear in SMILES notation.

One series has as its target IP (Homo sapiens, UniProt P43119). The settings on record: cited from earlier work.
A further series has as its system HCA-7 colon cancer cells. Conditions: 10 μM; cited from earlier work.
Series [1] is described as follows: administration of L-161,982 alone to control animals. The series is classed as in vivo, mice. From the text:
Furthermore, L-161, 982 protected mice against the synergistic lethality induced by co-infection with C. albicans and S. aureus. […] The goal of these studies was to further investigate the antimicrobial mechanism of action (MOA) of L-161, 982, testing mechanisms associated with major classes of antimicrobials.

A further series relates to S. aureus. The series is described as follows: cytoplasmic leakage assay (OD260). The series is classed as cell-based, Staphylococcus aureus. The settings on record: 50 μg/ml. As to the method: S. aureus was grown shaking at 37° C. in PBS alone, with 50 μg/ml L-161, 982 or with 4 μg/ml Chlorhexidine (positive control). The appearance of nucleic acid in culture supernatants was measured by OD260 at the indicated times. Data are expressed as change in absorbance at 260 nm compared to control (AA260). Data presented is cumulative of two independent experiments.
Cytoplasmic leakage assay. Cytoplasmic leakage assays were performed as previously described with modifications (11). Briefly, S. aureus was cultured to mid-log phase in TSB with shaking at 37° C. Bacteria were then harvested and resuspended in PBS to a concentration of ˜108/ml. Cultures were treated with L-161,982 (50 μg/ml) or Chlorhexidine (4 μg/ml), a positive control, and incubated at 37° C. with shaking. Culture supernatants were monitored over time for cytoplasmic leakage via OD260 measurements using a spectrophotometer (Biomate 3S, Thermo Scientific). For this, aliquots were removed at 0.5, 1, 2, and 3 hours and centrifuged for 5 min at 10,000×g at room temperature to remove cellular debris before taking OD260 measurements. Negative control cultures containing no drug were used to calculate change in absorbance (AA260) at each time point.

The subject of a further series is S. aureus NRS383. Briefly: mouse MRSA peritonitis/sepsis model. Format: in vivo, mice. The settings on record: for survival by day 2 post-inoculation: 10 mg/kg i.p. On the procedure:
Mice were infected intraperitoneally with 0.2 ml of the indicated inoculum of S. aureus NRS383 in 3% hog gastric mucin/PBS. One group of mice/inoculum received either the vehicle or L-161, 982 at a dose of 10 mg/kg by i.p. injection as indicated in Materials and Methods. (A) Mortality was assessed using Kaplan Meier test (*P<0.05; **P<0.01; ***P<0.001; ns—not significant; n=15/group) compared to control groups. (B) Microbial burden in peritoneal lavage fluid and spleen was assessed between untreated (control) and treated (L-161, 982) groups 24 and 48 h post-inoculation (n=6 to 8/group). Values are plotted as the median CFU and compared using the Mann-Whitney U test (**P<0.01; ***P<0.001). Data shown are representative of three replicate experiments.
The mouse peritonitis/intra-abdominal model was performed as previously described (8). In brief, for MRSA peritonitis, mice were injected intraperitoneally (i.p.) with 4×10^6 CFU or 5×10^6 CFU or 2×10^7 CFU of S. aureus in 0.2 ml of PBS containing 3% hog gastric mucin type III (Sigma Aldrich). Mice injected i.p. with 0.2 ml of mucin/PBS served as a negative infection control. For the intra-abdominal infection with C. albicans and S. aureus, mice were injected i.p. with 7×10^6 CFU of C. albicans and 8×10^7 CFU of S. aureus (8.7×10^7 CFU total) in 0.2 ml of PBS. After inoculation, mice were observed over 10 days for signs of morbidity (hunched posture, inactivity, lethargy, and ruffled fur) and mortality. […] In the MRSA peritonitis experiments, mice were sacrificed at 24 or 48 h post-inoculation to assess microbial burden. Peritoneal cavities were lavaged by injection of 2 ml of sterile PBS followed by gentle massaging of the peritoneal cavity. Peritoneal lavage fluid then was removed using a pipette inserted into a small incision in the abdominal cavity. Spleens were removed, weighed, and mechanically homogenized prior to CFU analysis. Microbial burdens in the peritoneal lavage fluid and spleen were enumerated as described above.
Each inhibitor was prepared fresh as a concentrated stock (20-25 mg/ml) in DMSO and diluted to a working concentration of […] in sterile PBS (final DMSO concentration, 2.3%). A sham treatment containing only 2.3% DMSO in PBS was also prepared. For the MRSA peritonitis study, the EP4 receptor antagonist was administered 2 h after S. aureus inoculation and once daily thereafter until day 4 post inoculation. For the IAI co-infection study, COX inhibitor or vehicle control was administered 4 h prior to and 4 and 8 h after inoculation with C. albicans and S. aureus while the EP receptor antagonists were administered daily starting 1 day prior to and 5 days after infection. All other procedures were performed as described above. Control groups received the vehicle at the same dose interval.
L-161, 982 protects against mono- and poly-microbial infections with MRSA. We next evaluated the efficacy of L-161, 982 in vivo using an established mouse peritonitis/sepsis model of infection. Mice were inoculated with three varying lethal inocula of S. aureus and treated with L-161, 982 (10 mg/kg) intraperitoneally (i.p.) 2 h post-inoculation and once daily afterwards through day 4. Control group received the vehicle at the same dose interval.

Sequence of IP (P43119 whole entry): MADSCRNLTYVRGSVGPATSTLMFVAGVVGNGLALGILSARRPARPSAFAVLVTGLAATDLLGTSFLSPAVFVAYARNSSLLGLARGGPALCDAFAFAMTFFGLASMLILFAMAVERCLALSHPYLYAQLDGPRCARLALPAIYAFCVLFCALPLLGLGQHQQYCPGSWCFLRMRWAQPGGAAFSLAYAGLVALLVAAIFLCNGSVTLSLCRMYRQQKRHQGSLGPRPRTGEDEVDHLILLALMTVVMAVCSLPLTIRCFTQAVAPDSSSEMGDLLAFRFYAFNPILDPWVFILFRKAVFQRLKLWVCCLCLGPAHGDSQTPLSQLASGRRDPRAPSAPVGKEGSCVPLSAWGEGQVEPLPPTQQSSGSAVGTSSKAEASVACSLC

One may read the Ki as the dissociation constant of the complex between target and ligand, obtained from inhibition or displacement. In the case of `CCCCc1nn(-c2ccccc2C(F)(F)F)c(=O)n1Cc1ccc(-c2ccccc2S(=O)(=O)NC(=O)c2sccc2C)cc1` [L-161, 982, N-[[4′-[[3-Butyl-1,5-dihydro-5-oxo-1-[2-(trifluoromethyl)phenyl]-4H-1,2,4-triazol-4-yl]methyl][1,1′-biphenyl]-2-yl]sulfonyl]-3-methyl-2-thiophenecarboxamide], the Ki at IP is 6.7 µM. Moreover, the “effect on PGE2-induced cell proliferation” value in the series on HCA-7 colon cancer cells is listed as “blocks PGE2-induced cell proliferation”. Besides, in series [1], the “morbidity or mortality in control animals” value is on record as “no morbidity or mortality” and the “overt signs of toxicity” value is “did not cause any overt signs of toxicity”. Besides, the “OD260 values of culture supernatants” value in the series on S. aureus was “did not increase”. Moreover, in the series on S. aureus NRS383 (24 h post inoculation, vs untreated), the “reduction of S. aureus in peritoneal cavity and spleen” value came out at 3 logs. Further, the “additional reduction of S. aureus in peritoneal cavity and spleen” value with S. aureus NRS383 (48 h post infection, after a second dose) is 3 log. The “mortality by day 2 at high inoculum” value in the series on S. aureus NRS383 (inoculum 2×10^7 CFU) is on record as “could not be reversed”. Besides, the “survival by day 2 post-inoculation” value with S. aureus NRS383 (inoculum 4×10^6 CFU, control 40) turned out to be 85%. Also, in the series on S. aureus NRS383 (inoculum 5×10^6 CFU, control 25), the “survival by day 2 post-inoculation” value came out at 55%. Besides, the “survival through day 10” value in the series with S. aureus NRS383 (intermediate and lowest inocula, continued dosing, control 20% survival) is “sustained survival”. Further, in the series on S. aureus NRS383 (one treatment, depending on infectious dose), the “survival rate raised by” value was “at least 50%”.

Source of the values: patent publication US20200352912A1, “ANTIMICROBIAL COMPOSITIONS AND METHODS OF USING THE SAME” (The Board Of Supervisors Of Louisiana State University And …, priority 2018, published 2020).
